# Measurements from patent US20040101571A1, “Use of hydrogen peroxide for the treatment of warts” (priority 2002, published 2004).
# Tested on: warts (human papillomavirus-induced tumors)
# Test: Topical treatment of warts in human patients (clinical case examples)
# Type: in vivo
# Excerpt: The method of the present invention neither destroys healthy, uninfected tissue nor results in any local or systemic side effects, scarring, disfigurement or discomfort to the human treated. Furthermore, the use of the present method results in the destruction of latent viral DNA found in the tumor and the surrounding tissues so that instances of incomplete resolution and are prevented. […] In accordance with the method according to this invention, “regular use of the hydrogen peroxide” is meant to mean application of the hydrogen peroxide at least once a day to the body surface containing the wart(s). A further embodiment of the method of this invention comprises placing a small amount of gel residue or gel on the tumor to be treated. It has been determined through clinical evaluation that once the method of this invention is initiated, the warts begin to shrink, no matter what size, and will totally disappear after a period of four to six weeks of treatment, or less if the gel is applied more often than once daily at bedtime.
# A person presented with warts on the right foot of some two months duration; measuring about 3 mm in diameter, with raised dark spots on the surface. Hydrogen peroxide gel was applied once daily at bedtime over the wart with a Q-tip and left open to air dry. […]
smiles,measurement,setting,value
OO [hydrogen peroxide],period of treatment until warts totally disappear,"clinical evaluation, applied once daily at bedtime, warts of any size begin to shrink, less if applied more often",four to six
same,overall clinical experience in treatment and elimination of warts,clinical experience to date,complete eradication of the warts with no recurrence
